# Results from patent publication US12029728B2, “Small molecules with anti-protozoan activity” (New Mexico Tech University Research Park Corporation, priority 2018, dated 2024).
# Columns and labels:
# [1] = test system: U87 cells; assay: MTT cell survival assay, U87; type: cell-based; conditions: Homo sapiens, U-87 MG, 48 hours at 37° C., read-out: IC50 (GI50), cell survival
# Description: The GI50 (IC50), the concentration at which 50% cell survival is seen upon treatment with a compound, was determined for Compound 2 in Jurkat, U87, HeLa, and ARPE cells. Cells were cultured in 96-well plates and incubated with 50 μM, 25 μM, 12.5 μM, 6 μM, 3 μM, 1.5 μM, or 0 μM of Compound 2 for 48 hours at 37° C. Following the incubation period, a 3-(4,5-dimethylthiazol-2-yl)-2,5-diphenyl tetrazolium bromide (MTT) assay was performed. In brief, a 10% volume of MTT was added to each well. Cells were incubated with MTT for 2 hours, at which time cell supernatant was removed and cells were taken into 100 μL DMSO. The absorbance of cell solutions was then read at 595 nm. A decrease in absorbance indicated a decrease in cell survival.
# [2] = test system: T. cruzi-infected ARPE cells; assay: Treatment of T. cruzi-infected ARPE cells, imaging; type: cell-based, Trypanosoma cruzi; conditions: for amastigotes in ARPE cultures: 5 days, EVOS imaging; for T. cruzi seen in EVOS image: day 12
# Description: Four confocal dishes were prepared with 10,000 ARPE cells, which were adhered overnight at 37° C. The four dishes were ARPE control cells, non-infected but 5 μM Compound 2-treated cells, non-treated but infected cells, and infected cells treated with 5 μM Compound 2. For the infected dishes, ARPE media was removed and replaced with 2 mL of infectious amastigotes and trypomastigotes from the ARPE passaged plate. The dishes were then incubated for 2 hours at 37° C. The treated dishes were incubated with 5 μM Compound 2 for 5 days at 37° C., while untreated dishes were incubated in fresh media without Compound 2 for 5 days at 37° C. After the 5-day period, cells were washed 3 times in ARPE media and fixed with 1 mL 4% paraformaldehyde. Cells were visualized using an EVOS cell imaging system. Amastigotes appeared as small, dense, and mostly birefringent in images.
# The experiment above was repeated using 1 μM Compound 2.
# Four confocal dishes with 10,000 ARPE cells were prepared and adhered overnight at 37° C. The four dishes were: 1) ARPE control cells; 2) non-infected cells treated with 1 μM Compound 2; 3) untreated infected cells; and 4) T. cruzi-infected cells treated with 1 μM Compound 2. For the infected dishes, ARPE media was removed and replaced with 2 mL of infectious amastigotes and trypomastigotes expressing tdTomato (from ARPE passaged plate). The dishes were then incubated overnight for 7 days at 37° C. The untreated dishes were incubated in fresh media without Compound 2 for 7 days at 37° C. After the 7-day incubation period, cells were washed 3 times in ARPE media and fixed with 1 mL 4% paraformaldehyde. tdTomato fluorescence, which is indicative of viable T. cruzi, was then observed via fluorescence microscopy.
# ARPE cells were plated in confocal dishes (20,000 cells per dish) and incubated overnight at 37° C. Cells were infected with T. cruzi by incubating cells with T. cruzi amastigotes and trypomastigotes expressing tdTomato (˜2×10^5 cells in total) for 24 hours at 37° C. Uninfected cells served as controls. Following the T. cruzi incubation period, extracellular parasites were removed, and the medium was replaced with DMEM/F12 culture media with or without 1 μM Compound 2. The cells were incubated further for 24 hours at 37° C. Cells were then treated two more times with fresh DMEM/F12 culture media with or without 1 μM Compound 2 and incubated for 24 hours at 37° C. Following fixation of cells in 4% paraformaldehyde, plates were imaged for tdTomato fluorescence, which is indicative of viable T. cruzi, such that the effects of repeated Compound 2 treatment could be compared to a single treatment with Compound 2.
# ARPE cells were plated in confocal dishes (20,000 cells per dish) and incubated overnight at 37° C. Cells were infected with T. cruzi by incubating cells with T. cruzi amastigotes and trypomastigotes expressing tdTomato (˜2×10^5 cells in total) for 24 hours at 37° C. before washing dishes three times with DMEM/F12 culture media. Uninfected plates served as controls. The dishes were then treated with 2 μM Compound 2 or left untreated as a control and incubated further for 5 days at 37° C. The treated dish received a single treatment of Compound 2 on day 1. Dishes were washed twice with DMEM/F12 media and fixed in 4% paraformaldehyde before being imaged using confocal microscopy. […] The other Compound 2 dishes that were not incubated with T. cruzi a second time were used as controls. Following fixation of cells in 4% paraformaldehyde, tdTomato fluorescence of the cells was assessed using confocal microscopy.
# ARPE cells were plated in confocal dishes (20,000 cells per dish) and incubated overnight at 37° C. Dishes were incubated with T. cruzi amastigotes and trypomastigotes expressing tdTomato (˜2×10^5 cells) for 48 hours at 37° C. Untreated cells served as controls. Cells were then washed 3 times with cell medium, treated with 5 μM Compound 2 or left untreated as a control and incubated further for 2 days at 37° C. […]
# [3] = test system: L. major-infected MDMs; assay: L. major-infected human MDMs, quantitative cell bioimaging; type: cell-based, Leishmania major; conditions: 1 μM, 5 μM, 10 μM
# Description: Human MDMs were cultured on glass slides and incubated with metacyclic L. major for 24 hours to allow for internalization of parasites. After the 24-hour L. major incubation period, extracellular parasites were removed from the culture. 24 hours after the removal of extracellular parasites, infected cells were treated with vehicle control (DMSO), 5 μM MTF, 1 μM Compound 2, 5 μM Compound 2, 10 μM Compound 2, 2 μM Compound 7, or 20 μM Compound 7. Following treatment, the cells were fixed with 2% paraformaldehyde and subsequently stained with the DNA stain Hoechst 33342. The stained cover slips were transferred onto glass slides, and quantitative cell bioimaging was utilized to determine the number of amastigotes per 500 cells using a CellInsight CX5 High Content screening platform.
# [4] = test system: T. gondii-infected ARPE cells; assay: Treatment of T. gondii-infected ARPE cells, imaging; type: cell-based, Toxoplasma gondii; conditions: for T. gondii in ARPE cells: 4 days
# Description: ARPE cells were cultured at confluency in a 24 well plate. Cells were incubated with T. gondii (ATCC PRA-310) for 1 hour at 37° C. to allow for T. gondii internalization. After the 1-hour T. gondii incubation period, extracellular T. gondii was removed from culture and cells were washed 3 times with cell media. […] Cells were visualized using an EVOS cell imaging system. The effect of a 3-day Compound 2 treatment on T. gondii-infected ARPE cells was also investigated. 2×10^4 ARPE cells were infected with ˜1×10^6 T. gondii parasites as described in the above paragraph. Cells were then incubated with 5 μM Compound 2 for 3 days at 37° C. Following incubation with Compound 2, cells were washed 3 times in cell media, fixed with 4% paraformaldehyde, stained with DAPI, and visualized with confocal microscopy.
smiles,measurement,setting,value
"O=C(NO)C(c1ccccc1)c1c(-c2ccc3ccccc3c2)[nH]c2ccccc12 (stereo not shown) [Compound 2, N-hydroxy-2-(2-(naphthalen-2-yl)-1H-indol-3-yl)-2-phenylacetamide]",IC50,[1],11.5 ± 0.41 µM
same,amastigotes in ARPE cultures,[2]; 1 μM,absent
same,intracellular T. cruzi parasites,"[2]; 1 μM, 7 days, tdTomato fluorescence",eradicated
same,eradication of intracellular T. cruzi and reinfection,"[2]; 2 μM, second incubation with T. cruzi",eradicated intracellular T. cruzi and protected cells from reinfection
same,T. cruzi in ARPE cells (CherryTomato fluorescence),"[2]; 2 μM, two days",eradicated T. cruzi
same,T. cruzi seen in EVOS image,[2]; 5 μM for 2 days,Small amounts of T. cruzi dots were observed
same,intracellular parasites,"[2]; 5 μM, 2 days, after 48 hours infection",killed intracellular parasites
same,amastigotes in ARPE cultures,[2]; 5 μM,absent
same,T. cruzi seen in EVOS image,[2]; 10 μM for 2 days,could not be seen
same,state of infected ARPE cells after treatment,[2]; 4 treatments with 2 μM over 4 days,cured
same,T. cruzi-infected cell foci in fluorescence images,"[2]; 5 (μM) for 2 days, day 17",Only two T. cruzi-infected cell foci were found
same,tdTomato fluorescence,"[2]; 10 (μM) for 2 days, day 17",no tdTomato fluorescence was observed
same,long term treatment efficacy against T. cruzi infection,"[2]; daily 2 μM for 5 days, then 5 days without treatment",long-term full cure
same,parasite death,"[2]; one treatment with 2 μM, 5-day incubation",full parasite death
same,T. cruzi infection after treatment,"[2]; repeated treatment (three times) with 1 μM, every 24 hours",eradicated the T. cruzi infection
same,intracellular T. cruzi and re-infection,"[2]; single dose of 2 μM, 2 days",killed intracellular T. cruzi and protected the cells from re-infection
same,T. cruzi infection after treatment,[2]; single treatment with 1 μM,only a small portion of the T. cruzi infection remaining
same,total number of parasites per cell,[3],decreased the total number of parasites per cell in a dose dependent manner
same,T. gondii in ARPE cells,[4]; 2 μM,clearance of T. gondii from ARPE cells
same,T. gondii infection of ARPE cells,"[4]; 5 μM, 3 days",cleared ARPE cells of T. gondii infection
same,T. gondii in ARPE cells,[4]; 5 μM,clearance of T. gondii from ARPE cells
same,T. gondii infection of ARPE cells,"[4]; 5 μM, 5 days",cleared ARPE cells of T. gondii infection
